Measurements as given in patent publication US6358885B1, “Substituted phenylheterocyclic herbicides” (Mississippi State University, priority 1992, dated 2002).

Tests used:
velvetleaf = assay: Test B preemergence/postemergence greenhouse plant response rating 0 to 10; type: in vivo, Abutilon theophrasti; conditions: 0 to 10 scale
How it was run: (§1)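 Postemergence treatment of plants two to eighteen cm tall ran alongside preemergence treatment of planted seed, each using compound in a non-phytotoxic solvent.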

wild buckwheat = assay: as above; type: in vivo, Polygonum convolvulus; conditions: 0 to 10 scale
How it was run: as §1

barley [1] = assay: as above; type: in vivo, Hordeum vulgare; conditions: for Plant response rating, Barley: 0 to 10 scale
How it was run: as §1

morningglory = assay: as above; type: in vivo, Ipomoea hederacea; conditions: 0 to 10 scale
How it was run: as §1

umbrella sedge = assay: Test C flood test plant response rating 0 to 100; type: in vivo, Cyperus difformis; conditions: for Plant response rating Umbrella sedge: flood test species listed under POSTEMERGENCE, 0 to 100 scale
Source text: The compounds evaluated in this test were formulated in a non-phytoxic solvent and applied to the soil surface before plant seedlings emerged (preemergence application), to water that covered the soil surface (flood application), and to plants that were in the one-to-four leaf stage (postemergence application). A sandy loam soil was used for the preemergence and postemergence tests, while a silt loam soil was used in the flood test. Water depth was approximately 2.5 cm for the flood test and was maintained at this level for the duration of the test. Plant species in the preemergence and postemergence tests consisted of barley (Hordeum vulgare), bedstraw (Galium aparine), blackgrass (Alopecurus myosuroides), chickweed (Stellaria media), corn (Zea mays), cotton (Gossypium hirsutum), crabgrass (Digitaria sanguinalis), downy brome (Bromus tectorum), giant foxtail (Setaria faberii), lambsquarters (Chenopodium album), morningglory (Ipomoea hederacea), pigweed ([…]), rape (Brassica napus), ryegrass (Lolium multiflorum), sorghum (Sorghum bicolor), soybean (Glycine max), speedwell (Veronica persica), sugar beet (Beta vulgaris), velvetleaf (Abutilon theophrasti), wheat (Triticum aestivum), wild buckwheat (Polygonum convolvulus), and wild oat (Avena fatua). All plant species were planted one day before application of the compound for the preemergence portion-of this test. Plantings of these species were adjusted to produce plants of appropriate size for the post-emergence portion of the test. […] All plant species were grown using normal greenhouse practices. Visual evaluations of injury expressed on treated plants, when compared to untreated controls, were recorded approximately fourteen to twenty one days after application of the test compound. […] A dash (-) response means no test result.

rape = assay: Test C preemergence/postemergence greenhouse plant response rating 0 to 100; type: in vivo, Brassica napus; conditions: POSTEMERGENCE; for Plant response rating, Rape: 0 to 100 scale
How it was run: (§2)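 Compounds in non-phytotoxic solvent applied preemergence to sandy loam one day after planting, postemergence at the 1–4 leaf stage, or to ~2.5 cm floodwater over silt loam.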

bedstraw = assay: Test B preemergence/postemergence greenhouse plant response rating 0 to 10; type: in vivo, Galium aparine; conditions: for Plant response rating, Bedstraw: 0 to 10 scale
How it was run: as §1

soybean [2] = assay: Test C preemergence/postemergence greenhouse plant response rating 0 to 100; type: in vivo, Glycine max; conditions: POSTEMERGENCE; for Plant response rating, Soybean: 0 to 100 scale
How it was run: as §2

sorghum = assay: Test B preemergence/postemergence greenhouse plant response rating 0 to 10; type: in vivo, Sorghum bicolor; conditions: 0 to 10 scale
How it was run: as §1

barley [3] = assay: Test C preemergence/postemergence greenhouse plant response rating 0 to 100; type: in vivo, Hordeum vulgare; conditions: POSTEMERGENCE; for Plant response rating Barley Igri: 0 to 100 scale
How it was run: as §2

blackgrass = assay: as above; type: in vivo, Alopecurus myosuroides; conditions: POSTEMERGENCE; for Plant response rating, Blackgrass: 0 to 100 scale
How it was run: as §2

soybean [4] = assay: Test B preemergence/postemergence greenhouse plant response rating 0 to 10; type: in vivo, Glycine max; conditions: 0 to 10 scale
How it was run: as §1

cocklebur = assay: as above; type: in vivo, Xanthium pensylvanicum; conditions: for Plant response rating, Cocklebur: 0 to 10 scale
How it was run: as §1

pigweed = assay: Test C preemergence/postemergence greenhouse plant response rating 0 to 100; type: in vivo, Amaranthusretroflexus; conditions: POSTEMERGENCE; for Plant response rating Pigweed: 0 to 100 scale
How it was run: as §2

ryegrass = assay: as above; type: in vivo, Lolium multiflorum; conditions: POSTEMERGENCE; for Plant response rating Ryegrass: 0 to 100 scale
How it was run: as §2

sugar beet = assay: Test B preemergence/postemergence greenhouse plant response rating 0 to 10; type: in vivo, Beta vulgaris; conditions: 0 to 10 scale
How it was run: as §1

chickweed [5] = assay: as above; type: in vivo, Stellaria media; conditions: for Plant response rating, Chickweed: 0 to 10 scale
How it was run: as §1

chickweed [6] = assay: Test C preemergence/postemergence greenhouse plant response rating 0 to 100; type: in vivo, Stellaria media; conditions: POSTEMERGENCE; for Plant response rating, Chickweed: 0 to 100 scale
How it was run: as §2

CC(C)COc1cc(-c2nn3c(c2Cl)CCCC3)c(F)cc1Cl [Compound 30]
20: Plant response rating (0 to 100), Soybean (soybean [2]; Rate 16 g/ha) | Plant response rating (0 to 100), Blackgrass (blackgrass; Rate 16 g/ha) | Plant response rating (0 to 100), Ryegrass (ryegrass; Rate 4 g/ha) | Plant response rating (0 to 100), Chickweed (chickweed [6]; Rate 16 g/ha)
3: Plant response rating, Chickweed (chickweed [5]; Rate 200 g/ha, PREEMERGENCE)
6: Plant response rating, Wild buckwheat (wild buckwheat; Rate 200 g/ha, PREEMERGENCE) | Plant response rating, Barley (barley [1]; POSTEMERGENCE, Rate 200 g/ha) | Plant response rating, Sorghum (sorghum; Rate 200 g/ha, POSTEMERGENCE)
9: Plant response rating, Morningglory (morningglory; Rate 200 g/ha, POSTEMERGENCE) | Plant response rating, Bedstraw (bedstraw; Rate 200 g/ha, PREEMERGENCE) | Plant response rating, Sugar beet (sugar beet; Rate 200 g/ha, PREEMERGENCE)
70: Plant response rating Barley Igri (barley [3]; 250 g/ha) | Plant response rating, Chickweed (chickweed [6]; 250 g/ha)
2: Plant response rating, Barley (barley [1]; Rate 200 g/ha, PREEMERGENCE) | Plant response rating, Morningglory (morningglory; PREEMERGENCE, Rate 50 g/ha) | Plant response rating, Soybean (soybean [4]; Rate 200 g/ha, POSTEMERGENCE) | Plant response rating, Soybean (soybean [4]; Rate 200 g/ha, PREEMERGENCE)
60: Plant response rating, Blackgrass (blackgrass; 62 g/ha) | Plant response rating Ryegrass (ryegrass; 62 g/ha)
80: Plant response rating Umbrella sedge (umbrella sedge; 250 g/ha) | Plant response rating (0 to 100), Rape (rape; Rate 16 g/ha) | Plant response rating, Blackgrass (blackgrass; 250 g/ha) | Plant response rating Ryegrass (ryegrass; 250 g/ha)
25: Plant response rating (0 to 100), Umbrella sedge (umbrella sedge; Rate 16 g/ha, under POSTEMERGENCE head (flood test species))
5: Plant response rating, Velvetleaf (velvetleaf; PREEMERGENCE, Rate 50 g/ha) | Plant response rating (0 to 10 scale), Barley (barley [1]; POSTEMERGENCE, Rate 50 g/ha) | Plant response rating, Morningglory (morningglory; Rate 200 g/ha, PREEMERGENCE) | Plant response rating, Sugar beet (sugar beet; PREEMERGENCE, Rate 50 g/ha) | Plant response rating (0 to 10 scale), Chickweed (chickweed [5]; POSTEMERGENCE, Rate 50 g/ha)
100: Plant response rating, Rape (rape; 62 g/ha) | Plant response rating, Rape (rape; 250 g/ha) | Plant response rating Pigweed (pigweed; 62 g/ha) | Plant response rating Pigweed (pigweed; 250 g/ha) | Plant response rating (0 to 100), Pigweed (pigweed; Rate 4 g/ha) | Plant response rating (0 to 100), Pigweed (pigweed; Rate 16 g/ha)
4: Plant response rating, Sorghum (sorghum; POSTEMERGENCE, Rate 50 g/ha) | Plant response rating, Cocklebur (cocklebur; Rate 200 g/ha, PREEMERGENCE)
7: Plant response rating, Velvetleaf (velvetleaf; POSTEMERGENCE, Rate 50 g/ha) | Plant response rating, Soybean (soybean [4]; POSTEMERGENCE, Rate 50 g/ha) | Plant response rating (0 to 10 scale), Cocklebur (cocklebur; POSTEMERGENCE, Rate 50 g/ha)
10: Plant response rating, Velvetleaf (velvetleaf; Rate 200 g/ha, POSTEMERGENCE) | Plant response rating, Velvetleaf (velvetleaf; Rate 200 g/ha, PREEMERGENCE) | Plant response rating, Wild buckwheat (wild buckwheat; POSTEMERGENCE, Rate 50 g/ha) | Plant response rating, Wild buckwheat (wild buckwheat; Rate 200 g/ha, POSTEMERGENCE) | Plant response rating (0 to 100), Umbrella sedge (umbrella sedge; POSTEMERGENCE section, flood test, Rate 4 g/ha) | Plant response rating, Bedstraw (bedstraw; POSTEMERGENCE, Rate 200 g/ha) | Plant response rating (0 to 100), Blackgrass (blackgrass; Rate 4 g/ha) | Plant response rating, Cocklebur (cocklebur; POSTEMERGENCE, Rate 200 g/ha) | Plant response rating, Sugar beet (sugar beet; POSTEMERGENCE, Rate 50 g/ha) | Plant response rating, Sugar beet (sugar beet; Rate 200 g/ha, POSTEMERGENCE) | Plant response rating (0 to 100), Chickweed (chickweed [6]; Rate 4 g/ha)
40: Plant response rating (0 to 100), Ryegrass (ryegrass; Rate 16 g/ha)
30: Plant response rating Umbrella sedge (umbrella sedge; 62 g/ha) | Plant response rating (0 to 100), Barley Igri (barley [3]; Rate 4 g/ha) | Plant response rating (0 to 100), Barley Igri (barley [3]; Rate 16 g/ha)
8: Plant response rating, Morningglory (morningglory; POSTEMERGENCE, Rate 50 g/ha) | Plant response rating (0 to 10 scale), Bedstraw (bedstraw; POSTEMERGENCE, Rate 50 g/ha) | Plant response rating, Chickweed (chickweed [5]; POSTEMERGENCE, Rate 200 g/ha)
0: Plant response rating, Wild buckwheat (wild buckwheat; PREEMERGENCE, Rate 50 g/ha) | Plant response rating, Barley (barley [1]; PREEMERGENCE, Rate 50 g/ha) | Plant response rating, Bedstraw (bedstraw; PREEMERGENCE, Rate 50 g/ha) | Plant response rating (0 to 100), Soybean (soybean [2]; Rate 4 g/ha) | Plant response rating, Sorghum (sorghum; PREEMERGENCE, Rate 50 g/ha) | Plant response rating, Sorghum (sorghum; Rate 200 g/ha, PREEMERGENCE) | Plant response rating, Soybean (soybean [4]; PREEMERGENCE, Rate 50 g/ha) | Plant response rating, Cocklebur (cocklebur; PREEMERGENCE, Rate 50 g/ha) | Plant response rating, Chickweed (chickweed [5]; PREEMERGENCE, Rate 50 g/ha)
50: Plant response rating (0 to 100), Rape (rape; Rate 4 g/ha) | Plant response rating, Soybean (soybean [2]; 62 g/ha) | Plant response rating, Soybean (soybean [2]; 250 g/ha) | Plant response rating Barley Igri (barley [3]; 62 g/ha) | Plant response rating, Chickweed (chickweed [6]; 62 g/ha)
